“Also recorded” adds a separate entry of the source.
Legend:
microorganisms [1] = experiment: Targeting peptide binding to target microorganisms (Tables 3, 10, 12); conditions: peptide binding in aqueous buffers that varied with peptide solubility; preferably 1x PBS
Source text: In certain embodiments, the targeting moiety comprises one or more targeting peptides that bind particular bacteria, fungi, and/or yeasts, and/or algae, and/or viruses and/or that bind particular groups of bacteria, and/or groups of fungi, and/or groups of yeasts, and/or groups of algae.
In certain embodiments the targeting peptides include peptides comprising or consisting of one or more of the amino acid sequences shown in Table 3 (SEQ ID NOs:13-1566). In various embodiments the peptides include peptides comprising or consisting of the retro, inverso, retro-inverso, and/or beta form of one or more of the amino acid sequences shown in Table 3. Also contemplated are circular permutations of these sequences as well as peptides comprising or consisting of the retro, inverso, retro-inverso, and/or beta form of such circular permutations.
In certain embodiments the targeting peptide can comprise one or more domains capable of binding, specifically binding, or preferentially binding to a microorganism, e.g., a target microbial organism (see, e.g., Table 3). In certain embodiment, the targeting peptide be identified via screening peptide libraries. For example, a phage display peptide library can be screened against a target microbial organism or a desired antigen or epitope thereof. Any peptide identified through such screening can be used as a targeting peptide for the target microbial organism.

microorganisms [2] = experiment: Morphology, biofilm and growth disrupting peptides (Table 5); assay type: cell-based; design: key: A: Peptide aggregates; B: Less hyphal formation; Clumps; Diffuse clumps and small polyps; F: Diffuse growth; H: Thin; I: Growth inhibition; Microcolony formation; Rippled; Small polyps; Thick; W: Halo formation on top, microlonies on bottom
Source text: In certain embodiments peptides that induce alterations in phenotype or other biological activities can also be used as antimicrobial effector moieties.

Row | Substance | Target(s) (microorganism bound by the targeting peptide) (microorganisms [1]) | further results
1 | 1T-3 (VLGIAGGLDAYGELVGGN; Peptide with targeting and/or antimicrobial activity) | S. mutans; also recorded: S. gordonii | –
2 | 1T-4 (LDAYGELVGGN; Peptide with targeting and/or antimicrobial activity) | S. gordonii; also recorded: S. sanguinis; also recorded: S. oralis; also recorded: V. atypica; also recorded: L. casei; also recorded: S. mutans | –
3 | 1T-6 (KFINGVLSQFVLERK; Peptide with targeting and/or antimicrobial activity) | S. mutans | –
4 | 1T-7 (SQRIIEPVKSPQPYPGFSVS; Peptide with targeting and/or antimicrobial activity) | M. xanthus | –
5 | 1T-8 (FSVAACGEQRAVTFVLLIEDLI; Peptide with targeting and/or antimicrobial activity) | M. xanthus | –
6 | 1T-9 (WAWAESPRCVSTRSNIHALAFRVEVAALT; Peptide with targeting and/or antimicrobial activity) | M. xanthus | –
7 | 1T-10 (SPAGLPGDGDEA; Peptide with targeting and/or antimicrobial activity) | M. xanthus | –
8 | 1T-11 (RISE; Peptide with targeting and/or antimicrobial activity) | S. mutans; also recorded: S. epidermidis; also recorded: P. aeruginosa | –
9 | 1T-12 (FGNIFKGLKDVIETIVKWTAAK; Peptide with targeting and/or antimicrobial activity) | C. xerosis; also recorded: C. striatum; also recorded: S. epidermidis; also recorded: S. mutans | –
10 | 1T-13 (FRSPCINNNSLQPPGVYPAR; Peptide with targeting and/or antimicrobial activity) | S. aureus; also recorded: S. epidermidis; also recorded: P. aeruginosa | –
11 | 1T-14 (ALAGLAGLISGK; Peptide with targeting and/or antimicrobial activity) | S. mutans; also recorded: S. aureus; also recorded: S. epidermidis; also recorded: C. xerosis | –
12 | 1T-15 (DVILRVEAQ; Peptide with targeting and/or antimicrobial activity) | S. mutans | –
13 | 1T-16 (IDMR; Peptide with targeting and/or antimicrobial activity) | P. aeruginosa | –
14 | 1T-17 (NNAIVYIS; Peptide with targeting and/or antimicrobial activity) | S. mutans | –
15 | 1T-18 (YSKTLHFAD; Peptide with targeting and/or antimicrobial activity) | S. aureus; also recorded: S. epidermidis; also recorded: C. striatum; also recorded: P. aeruginosa | –
16 | 1T-19 (PGAFRNPQMPRG; Peptide with targeting and/or antimicrobial activity) | S. aureus; also recorded: S. epidermidis; also recorded: P. aeruginosa | –
17 | 1T-20 (PALVDLSNKEAVWAVLDDHS; Peptide with targeting and/or antimicrobial activity) | S. mutans; also recorded: P. aeruginosa | –

Row | Substance | Target(s) (microorganism bound by the targeting peptide) (microorganisms [1]) | further results
18 | 1T-21 (YVEEAVRAALKKEARISTEDTPVNLPSFDC; Peptide with targeting and/or antimicrobial activity) | S. mutans; also recorded: P. aeruginosa | –
19 | 1T-22 (VPLDDGTRRPEVARNRDKDRED; Peptide with targeting and/or antimicrobial activity) | S. epidermidis; also recorded: P. aeruginosa | –
20 | 1T-23 (PALVDLSNKEAVWAVLDDHS; Peptide with targeting and/or antimicrobial activity) | S. mutans; also recorded: P. aeruginosa | –
21 | 1T-24 (EEAEEKLAEVSQAVKRLVR; Peptide with targeting and/or antimicrobial activity) | P. aeruginosa | –
22 | 1T-25 (VGLDVSVLVLFFGLQLLSVLLGAMIR; Peptide with targeting and/or antimicrobial activity) | S. aureus; also recorded: S. epidermidis; also recorded: C. xerosis; also recorded: C. striatum; also recorded: P. aeruginosa | –
23 | 1T-26 (LTILPTTFFAIIVPILAVAFIAYSGFKIKGIVEHKDQW; Peptide with targeting and/or antimicrobial activity) | S. mutans; also recorded: S. aureus; also recorded: S. epidermidis; also recorded: C. jeikeium; also recorded: C. xerosis; also recorded: C. striatum; also recorded: P. aeruginosa | –
24 | 1T-27 (ALFVSLEQFLVVVAKSVFALCHSGTLS; Peptide with targeting and/or antimicrobial activity) | S. mutans; also recorded: S. aureus; also recorded: S. epidermidis; also recorded: C. jeikeium; also recorded: C. xerosis; also recorded: C. striatum; also recorded: P. aeruginosa | –
25 | 1T-28 (VSRDEAMEFIDREWTTLQPAGKSHA; Peptide with targeting and/or antimicrobial activity) | P. aeruginosa | –
26 | 1T-29 (GSVIKKRRKRMSKKKHRKMLRRTRVQRRKLGK; Peptide with targeting and/or antimicrobial activity) | S. epidermidis; also recorded: C. jeikeium; also recorded: C. xerosis; also recorded: C. striatum; also recorded: P. aeruginosa; also recorded: S. mutans; also recorded: S. aureus | –
27 | 1T-30 (GKAKPYQVRQVLRAVDKLETRRKKGGR; Peptide with targeting and/or antimicrobial activity) | S. aureus; also recorded: S. epidermidis; also recorded: C. xerosis; also recorded: C. striatum; also recorded: P. aeruginosa | –
28 | 1T-31 (NATGTDIGEVTLTLGRFS; Peptide with targeting and/or antimicrobial activity) | S. mutans; also recorded: P. aeruginosa | –
29 | PF-624 (VFLLDSYCFVKINL; Peptide with targeting and/or antimicrobial activity) | – | Organism, effect (microorganisms [2]; E. coli): E. coli (C); Organism, effect (microorganisms [2]; M. luteus): M. luteus (C); Organism, effect (microorganisms [2]; MRSA): MRSA (C); Organism, effect (microorganisms [2]; P. mirabilis): P. mirabilis (C); Organism, effect (microorganisms [2]; S. epidermidis): S. epidermidis (D); Organism, effect (microorganisms [2]; S. mutans): S. mutans (D); Organism, effect (microorganisms [2]; S. pneumoniae): S. pneumoniae (D)
30 | PF-670 (chain 1 TVIVAPMHSGV; chain 2 TVIVAPMHSGV; Peptide with targeting and/or antimicrobial activity) | – | Organism, effect (microorganisms [2]; B. subtilis): B. subtilis (H); Organism, effect (microorganisms [2]; S. pneumoniae): S. pneumoniae (H)
31 | PF-C089 (MPKRHYYKLEAKALQFGLPFAYSPIQLLK; Peptide with targeting and/or antimicrobial activity) | – | Organism, effect (microorganisms [2]; P. gingivalis): P. gingivalis (R)
32 | PF-C214 (GGHKQLVIEPLVSQ; Peptide with targeting and/or antimicrobial activity) | – | Organism, effect (microorganisms [2]; F. nucleatum): F. nucleatum (T)
33 | PF-C293 (IIIILPKIYLVCKTV; Peptide with targeting and/or antimicrobial activity) | – | Organism, effect (microorganisms [2]; F. nucleatum): F. nucleatum (T); Organism, effect (microorganisms [2]; P. gingivalis): P. gingivalis (R); Organism, effect (microorganisms [2]; S. mutans): S. mutans (F)

Source: patent publication US20110039763A1, “TARGETED ANTIMICROBIAL MOIETIES” (C3 JIAN, INC., priority 2009, published 2011)
